Test results: US4143041A, “4'-Deoxyvincristine and related compounds” (Eli Lilly and Company, priority 1977, dated 1979)
Where a name gives a salt, the structure may show the parent alone.

How the values were obtained:
[1] = test system: ROS (Ridgeway osteogenic sarcoma); test: transplanted Ridgeway osteogenic sarcoma (ROS) in mice; format: in vivo; conditions: IP
Protocol: (§1) The compounds of this invention, as represented by Formula II above, particularly those in which R^1 is acetoxy, are powerful anti-tumor agents.
(§2) The following table -- Table 1 -- gives the results of several experiments in which transplanted tumors in mice were treated successfully with a compound of this invention.
(§3) In the table, column 1 gives the name of the compound; column 2, the transplanted tumor; column 3, the dose level or dose level range and the number of days the dosage was administered; column 4, the route of administration, and column 5, the percent inhibition of tumor growth or percent prolongation of survival time, e.g., B16. (ROS is an abbreviation of Ridgeway osteogenic sarcoma; GLS for Gardner lymphosarcoma; P1534(J) and L1210 are leukemias; CA755 is an adenocarcinoma; and B16 is a melanoma.).

[2] = test system: GLS (Gardner lymphosarcoma); test: transplanted Gardner lymphosarcoma (GLS) in mice; format: in vivo
Protocol: as §1, §2, §3

L1210 leukemia = test: transplanted L1210 leukemia in mice; format: in vivo; conditions: IP
Protocol: as §1, §2, §3

B16 melanoma = test: transplanted B16 melanoma in mice (survival); format: in vivo; conditions: IP
Protocol: as §1, §2, §3
**Delayed treatment-dosed 5th, 9th and 13th days

[3] = test system: 755 (CA755 adenocarcinoma); test: transplanted CA755 adenocarcinoma in mice; format: in vivo; conditions: IP
Protocol: as §1, §2, §3

pKa' in 66% DMF = format: physicochemical
P1534(J) leukemia = test: transplanted P1534(J) leukemia in mice; format: in vivo; conditions: IP
Protocol: as §1, §2, §3

transplanted tumors = test: anti-tumor / oncolytic activity against transplanted tumors in mice; format: in vivo
Text: as §1

[4] = test system: experimental malignancies; conditions: cited from earlier work
experimental tumors = conditions: cited from earlier work
[5] = cited from earlier work

## CC[C@H]1C[C@@H]2CN(CCc3c([nH]c4ccccc34)[C@@](C(=O)OC)(c3cc4c(cc3OC)N(C=O)[C@H]3[C@@](O)(C(=O)OC)[C@H](OC(C)=O)[C@]5(CC)C=CCN6CC[C@]43[C@@H]65)C2)C1 [4'-Deoxy-1-formylleurosidine sulfate]
[1]; 0.18 mg./kg. × 3 days
  Percent Inhibition or Prolongation of Survival Time: 93%
[1]; 0.25 mg./kg. × 3 days
  Percent Inhibition or Prolongation of Survival Time (Toxic): Toxic
[1]; 0.4 mg./kg. × 3 days
  Percent Inhibition or Prolongation of Survival Time: 100%
[2]; 0.18 mg./kg. × 3 days, IP
  Percent Inhibition or Prolongation of Survival Time: 100%
[2]; 0.25 mg./kg. × 3 days, IP
  Percent Inhibition or Prolongation of Survival Time (Toxic): Toxic
[2]; 0.4 mg./kg. × 3 days, IP
  Percent Inhibition or Prolongation of Survival Time: 100%
[2]; 0.6 mg./kg. × 3 days, IP
  Percent Inhibition or Prolongation of Survival Time (Toxic): Toxic
L1210 leukemia; 0.25 mg./kg. × 3 days, *1 or more indefinite survivors
  Percent Inhibition or Prolongation of Survival Time: 65%
L1210 leukemia; 0.4-0.6 mg./kg. × 3 days
  Percent Inhibition or Prolongation of Survival Time (Toxic): Toxic

## CC[C@H]1C[C@@H]2CN(CCc3c([nH]c4ccccc34)[C@@](C(=O)OC)(c3cc4c(cc3OC)N(C=O)[C@H]3[C@@](O)(C(=O)OC)[C@H](O)[C@]5(CC)C=CCN6CC[C@]43[C@@H]65)C2)C1 [4'-Deoxy-4-desacetyl 1-desmethyl-1-formyl-leurosidine sulfate]
B16 melanoma; 0.15-0.6 mg./kg. × 3 days, **delayed treatment, dosed 5th, 9th and 13th days
  Percent Inhibition or Prolongation of Survival Time: 31 -62%
[2]; 0.18 mg./kg. × 3 days, route not given
  Percent Inhibition or Prolongation of Survival Time: 95%
[2]; 0.6 mg./kg. × 3 days, route not given
  Percent Inhibition or Prolongation of Survival Time (Toxic): Toxic
[2]; 0.25-0.40 mg./kg. × 3 days, route not given
  Percent Inhibition or Prolongation of Survival Time: 94-100%

## CC[C@@H]1C[C@@H]2CN(CCc3c([nH]c4ccccc34)[C@@](C(=O)OC)(c3cc4c(cc3OC)N(C=O)[C@H]3[C@@](O)(C(=O)OC)[C@H](OC(C)=O)[C@]5(CC)C=CCN6CC[C@]43[C@@H]65)C2)C1 [4'-Deoxyvincristine sulfate, 4'-deoxyvincristine sulfate]
[3]; 0.9 mg./kg. × 3 days
  Percent Inhibition or Prolongation of Survival Time (Toxic): Toxic
[3]; 0.06-0.13 mg./kg. × 9-10 days
  Percent Inhibition or Prolongation of Survival Time: 15-100%
[3]; 0.1-0.3 mg./kg. × 3 days
  Percent Inhibition or Prolongation of Survival Time: 36-100%
[3]; 0.25-1.8 mg./kg. × 9-10 days
  Percent Inhibition or Prolongation of Survival Time (Toxic): Toxic
B16 melanoma; 0.30-0.9 mg./kg. × 3 days, *1 or more indefinite survivors
  Percent Inhibition or Prolongation of Survival Time: 36-143%
[2]; 0.18-0.25 mg./kg. × 3 days, IP
  Percent Inhibition or Prolongation of Survival Time: 62-94%
[2]; 0.4-0.6 mg./kg. × 3 days, IP
  Percent Inhibition or Prolongation of Survival Time (Toxic): Toxic

## CC[C@H]1C[C@@H]2CN(CCc3c([nH]c4ccccc34)[C@@](C(=O)OC)(c3cc4c(cc3OC)N(C=O)[C@H]3[C@@](O)(C(=O)OC)[C@H](OC(C)=O)[C@]5(CC)C=CCN6CC[C@]43[C@@H]65)C2)C1 [4'-deoxy-1-formylleurosidine]
pKa' in 66% DMF
  pKa: 9
P1534(J) leukemia; 0.18 mg./kg. × 10 days
  Percent Inhibition or Prolongation of Survival Time (Toxic): Toxic
P1534(J) leukemia; 0.08-0.18 mg./kg. × 10 days
  Percent Inhibition or Prolongation of Survival Time: 9-46%
[3]; 0.25 mg./kg. × 3 days
  Percent Inhibition or Prolongation of Survival Time: 47%
[3]; 0.4 mg./kg. × 3 days
  Percent Inhibition or Prolongation of Survival Time: 73%
[3]; 0.6 mg./kg. × 3 days
  Percent Inhibition or Prolongation of Survival Time: 54%
[3]; 0.03-0.09 mg./kg. × 9 days
  Percent Inhibition or Prolongation of Survival Time: 8-72%
[3]; 0.06-0.135 mg./kg. × 10 days
  Percent Inhibition or Prolongation of Survival Time: 33-93%
[3]; 0.2-0.3 mg./kg. × 10 days
  Percent Inhibition or Prolongation of Survival Time (Toxic): Toxic
B16 melanoma; 0.9 mg./kg. × 3 days
  Percent Inhibition or Prolongation of Survival Time (Toxic): Toxic
B16 melanoma; 0.25-0.6 mg./kg. × 3 days
  Percent Inhibition or Prolongation of Survival Time: 98-146%
[2]; 0.25-0.6 mg./kg. × 3 days, IP
  Percent Inhibition or Prolongation of Survival Time: 73-100%

## CC[C@H]1C[C@@H]2CN(CCc3c([nH]c4ccccc34)[C@@](C(=O)OC)(c3cc4c(cc3OC)N(C)[C@H]3[C@@](O)(C(=O)OC)[C@H](O)[C@]5(CC)C=CCN6CC[C@]43[C@@H]65)C2)C1 [4'-deoxy-4-desacetyl-leurosidine sulfate, 4'-deoxy-4-desacetylleurosidine sulfate]
[3]; 0.25 mg./kg. × 3 days
  Percent Inhibition or Prolongation of Survival Time: 32%
[3]; 0.4 mg./kg. × 3 days
  Percent Inhibition or Prolongation of Survival Time: 37%
[3]; 0.6 mg./kg. × 3 days
  Percent Inhibition or Prolongation of Survival Time (Toxic): Toxic
B16 melanoma; 0.15 mg./kg. × 3 days, **delayed treatment, dosed 5th, 9th and 13th days
  Percent Inhibition or Prolongation of Survival Time: 77%
B16 melanoma; 0.3 mg./kg. × 3 days, **delayed treatment, dosed 5th, 9th and 13th days
  Percent Inhibition or Prolongation of Survival Time: 103%
B16 melanoma; 0.6 mg./kg. × 3 days, **delayed treatment, dosed 5th, 9th and 13th days
  Percent Inhibition or Prolongation of Survival Time (Toxic): Toxic
[2]; 0.4 mg./kg. × 3 days, IP
  Percent Inhibition or Prolongation of Survival Time (Toxic): Toxic
[2]; 0.6 mg./kg. × 3 days, IP
  Percent Inhibition or Prolongation of Survival Time: 63%
[2]; 0.9 mg./kg. × 3 days, IP
  Percent Inhibition or Prolongation of Survival Time (Toxic): Toxic

## CC[C@H]1C[C@@H]2CN(CCc3c([nH]c4ccccc34)[C@@](C(=O)OC)(c3cc4c(cc3OC)N(C)[C@H]3[C@@](O)(C(=O)OC)[C@H](O)[C@]5(CC)C=CCN6CC[C@]43[C@@H]65)C2)C1 [4'-deoxy-4-desacetylleurosidine]
Transplanted tumors
  anti-tumor / oncolytic activity: oncolytic agent

## CC[C@]1(O)C[C@@H]2CN(CCc3c([nH]c4ccccc34)[C@@](C(=O)OC)(c3cc4c(cc3OC)N(C)[C@@H]3[C@]45CCN4CC=C[C@@](CC)(C[C@]3(O)C(=O)OC)[C@H]45)C2)C1 [4-desacetoxy vinblastine]
[4]
  activity in the treatment of experimental malignancies in animals: active

## CCC1(O)CN2CCc3c([nH]c4ccccc34)C(C(=O)OC)(c3cc4c(cc3OC)N(C)C3C(O)(C(=O)OC)CC5(CC)C=CCN6CCC43C65)CC(C2)C1O (stereo not drawn) [4-desacetoxy-3'-hydroxyvinblastine]
[4]
  activity in the treatment of experimental malignancies in animals: active

## CC[C@@H]1C[C@@H]2CN(CCc3c([nH]c4ccccc34)[C@@](C(=O)OC)(c3cc4c(cc3OC)N(C)[C@H]3[C@@](O)(C(=O)OC)[C@H](OC(C)=O)[C@]5(CC)C=CCN6CC[C@]43[C@@H]65)C2)C1 [deoxy VLB "A"]
[4]
  activity in the treatment of experimental malignancies in animals: active
Experimental tumors
  oncolytic activity in experimental tumors in mice: lack reproducible activity

## CC[C@H]1C[C@@H]2CN(CCc3c([nH]c4ccccc34)[C@@](C(=O)OC)(c3cc4c(cc3OC)N(C)[C@H]3[C@@](O)(C(=O)OC)[C@H](OC(C)=O)[C@]5(CC)C=CCN6CC[C@]43[C@@H]65)C2)C1 [deoxy VLB "B"]
[4]
  activity in the treatment of experimental malignancies in animals: active
Experimental tumors
  oncolytic activity in experimental tumors in mice: lack reproducible activity

## CCC1(O)CN2CCc3c([nH]c4ccccc34)C(C(=O)OC)(c3cc4c(cc3OC)N(C)C3C(O)(C(=O)OC)C(OC(C)=O)C5(CC)C=CCN6CCC43C65)CC(O)(C2)C1 (stereo not drawn) [leurocolombine]
[4]
  activity in the treatment of experimental malignancies in animals: active

## CC[C@]1(O)C[C@@H]2CN(CCc3c([nH]c4ccccc34)[C@@](C(=O)OC)(c3cc4c(cc3OC)N(C=O)[C@H]3[C@@](O)(C(=O)OC)[C@H](OC(C)=O)[C@]5(CC)C=CCN6CC[C@]43[C@@H]65)C2)C1 [leurocristine]
[4]
  activity in the treatment of experimental malignancies in animals: active

## CCC12CN3CCc4c([nH]c5ccccc45)[C@@](C(=O)OC)(c4cc5c(cc4OC)N(C=O)[C@H]4[C@@](O)(C(=O)OC)[C@H](OC(C)=O)[C@]6(CC)C=CCN7CC[C@]54[C@@H]76)C[C@@H](C3)C1O2 (stereo partly drawn) [leuroformine, N-formylleurosine]
[4]
  activity in the treatment of experimental malignancies in animals: active

## CC[C@@]1(O)C[C@@H]2CN(CCc3c([nH]c4ccccc34)[C@@](C(=O)OC)(c3cc4c(cc3OC)N(C)[C@H]3[C@@](O)(C(=O)OC)[C@H](OC(C)=O)[C@]5(CC)C=CCN6CC[C@]43[C@@H]65)C2)C1 [leurosidine]
[4]
  activity in the treatment of experimental malignancies in animals: active

## CCC12CN3CCc4c([nH]c5ccccc45)[C@@](C(=O)OC)(c4cc5c(cc4OC)N(C)[C@H]4[C@@](O)(C(=O)OC)[C@H](OC(C)=O)[C@]6(CC)C=CCN7CC[C@]54[C@@H]76)C[C@@H](C3)C1O2 (stereo partly drawn) [leurosine]
[5]
  clinical response: limited
[4]
  activity in the treatment of experimental malignancies in animals: active
Experimental tumors
  oncolytic activity in experimental tumors in mice: demonstrated oncolytic activity

## CCC1(O)CN2CCc3c([nH]c4ccccc34)C(C(=O)OC)(c3cc4c(cc3OC)N(C)C3C(O)(C(=O)OC)C(OC(C)=O)C5(CC)C=CCN6CCC43C65)CC(C2)C1O (stereo not drawn) [vincadioline]
[4]
  activity in the treatment of experimental malignancies in animals: active

## CC[C@]1(O)C[C@@H]2CN(CCc3c([nH]c4ccccc34)[C@@](C(=O)OC)(c3cc4c(cc3OC)N(C)[C@H]3[C@@](O)(C(=O)OC)[C@H](OC(C)=O)[C@]5(CC)C=CCN6CC[C@]43[C@@H]65)C2)C1 [vincaleukoblastine]
[4]
  activity in the treatment of experimental malignancies in animals: active
